Test in all cases: inhibition of tumour cell growth, NCI panel, 48 h
Test [1] has as its system HL-60(TB) leukemia.
In test [2] the test system is MOLT-4 leukemia.
Test [3] concerns HT29 colon.
Test [4] has as its system SN12C renal.
The test system of test [5] is UO-31 renal.
Test [6] relates to SK-OV-3 ovarian.
The subject of test [7] is UACC-62 melanoma.
Test [8] concerns OVCAR-5 ovarian.
The test system of test [9] is MCF7 breast.

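How tested: cells in 96-well plates exposed to compound for 48 hours at five concentrations. Abbreviation: GI50, concentration required for 50% inhibition of growth. The concentration for full growth arrest is given as TGI.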

Consider `COc1cc(C)c(CC/C(C)=C/Cc2cc(O)ccc2O)c(C)c1C`, for which the TGI in test [1], in test [2], in test [3], in test [4], in test [5] and in [6] was above 25 µM each time.
Turning to `CN(C)c1nc(Oc2nc(N(C)C)nc(N(C)C)n2)nc(N(C)C)n1`, the TGI in [7], in test [1], in test [2], in [3], in test [4] and in test [8] was above 100 µM throughout. Also, the TGI in test [5] and in [6] was above 100 µM in each case.
Regarding `Cc1nc2ccccc2nc1CC(=O)C(=O)Nc1ccc(Cl)cc1Cl`, the TGI in [7], in test [1], in [2], in [4], in test [8] and in test [5] was above 100 µM in each case. The same molecule gave a TGI in test [6] above 100 µM.
In the case of `c1ccc(-c2c(-c3ccccc3)[n+](Cc3ccc4ccccc4c3)c(-c3ccc(-c4nc5ccccc5s4)cc3)n2Cc2ccc3ccccc3c2)cc1`, the GI50 was 0.236 µM in [7]; 0.149 µM in [1]; 0.139 µM in test [2]; 0.0587 µM in test [9]; 0.218 µM in test [4]; 0.311 µM in test [8]. For the same molecule, the GI50 in test [5] was 0.28 µM. In addition, the TGI in test [7] is 1.25 µM; in [1], 0.471 µM; in test [2], 0.759 µM; in test [9], 0.337 µM; in [4], 1.04 µM; in test [8] it was 1.17 µM. For the same molecule, the TGI in test [5] was determined as 0.872 µM.
On to `C[C@]12CCC3[C@@H](CCC45OC4C(=O)CC[C@]35C)C1Cc1cnn(-c3ccc(F)cc3)c1N2` (some centres undefined), for which the TGI in test [7] is 68.9 µM; in test [1], 41.9 µM; in test [2], 94.7 µM; in test [3], 33 µM; in test [4] it was 48.4 µM; in test [5], above 100 µM. This molecule also displayed a TGI in test [6] above 100 µM.
On to `O=[N+]([O-])c1cccc(C2=NN(c3ccccc3)C3c4cc(Br)ccc4OCC23)c1` (centres undefined), for which the TGI in test [1], in [2], in test [3], in test [8], in test [5] and in test [6] was above 100 µM throughout.
For `O=[N+]([O-])c1ccc(C[P+]2(c3ccccc3)CCCCC2)cc1`, the TGI in [7], in test [1], in test [2], in test [3], in test [4] and in [8] was above 100 µM each time. For the same molecule, the TGI in test [5] and in test [6] was above 100 µM each time.
For `CCCCCCCC(=O)OCC(COC(=O)C(C)(C)C)OC(=O)Cc1ccccc1` (centres undefined), the TGI in [7], in test [1], in test [2], in [4], in test [8] and in [5] was above 100 µM each time. Moreover, the TGI in test [6] was above 100 µM.
As to `CC1=NN(C(=O)Cc2ccccc2)C(=O)/C1=C\c1ccc(O)cc1`, the TGI in test [7], in test [1], in test [2], in test [3], in test [4] and in [8] was above 100 µM each time. The TGI in test [5] and in [6] was above 100 µM each time.
For the molecule `CCOC(=O)C1C(c2ccc(Cl)cc2Cl)NC(c2ccc(C)cc2)C(C(=O)OC)S1(=O)=O` (centres undefined), the TGI in test [7], in [1], in [2], in [3], in test [8] and in [5] was above 100 µM each time. In addition, the TGI in test [6] is above 100 µM.
Consider `Cc1c(N2CCOCC2)nc2ccc(Cl)cc2c1-c1ccccc1`, for which the TGI in test [7], in test [1], in test [2], in test [3], in test [4] and in test [5] was above 100 µM in each case. Further, in test [6], the TGI was above 100 µM.
With `COc1cc2ccc3c4cc(OC)c(OC)cc4c[n+](C)c3c2cc1O`, the TGI in [7] was above 100 µM; in test [1] it was above 100 µM; in test [2], above 100 µM; in test [3], above 100 µM; in test [4], 43 µM; in [8], above 100 µM. Further, the TGI in [5] and in test [6] was above 100 µM throughout.
Turning to `Cc1cc([N+](=O)[O-])c(C)c2c1[nH]c1ccc(Cl)cc12`, the TGI in [1], in test [2], in [3], in test [4], in test [8] and in test [5] was above 100 µM each time.
